Source: patent US20240383869A1, “ARYLACETYL INHIBITORS OF TG2 AND USES THEREOF” (UNIVERSITY OF OTTAWA, priority 2021, published 2024)
Where a SMILES comes first, the peptide text is derived from it. [ ]: non-standard residue; d: D form. The star is where a group is joined. DON = [N-]=[N+]=CC(=O)CC[C@H](N)C(=O)O; Cbz = O=C(OCc1ccccc1)*

Assays:
[1] = tested on: glioblastoma multiforme (GBM) cell lines; details: Zhang et al. 2013; cited from earlier work
SCC-13 cells = details: shown previously; read-out: concentration reducing ECS cell invasion through Matrigel by ~50% relative to vehicle-treated cells; cited from earlier work
[2] = tested on: TG2 relative to other human transglutaminases; details: shown previously (Akbar et al. 2017); cited from earlier work
hTG2 [3] = target: T1, hTG2 (Homo sapiens, UniProt P21980); details: shown previously; cited from earlier work
T1 sequence (P21980 1-687): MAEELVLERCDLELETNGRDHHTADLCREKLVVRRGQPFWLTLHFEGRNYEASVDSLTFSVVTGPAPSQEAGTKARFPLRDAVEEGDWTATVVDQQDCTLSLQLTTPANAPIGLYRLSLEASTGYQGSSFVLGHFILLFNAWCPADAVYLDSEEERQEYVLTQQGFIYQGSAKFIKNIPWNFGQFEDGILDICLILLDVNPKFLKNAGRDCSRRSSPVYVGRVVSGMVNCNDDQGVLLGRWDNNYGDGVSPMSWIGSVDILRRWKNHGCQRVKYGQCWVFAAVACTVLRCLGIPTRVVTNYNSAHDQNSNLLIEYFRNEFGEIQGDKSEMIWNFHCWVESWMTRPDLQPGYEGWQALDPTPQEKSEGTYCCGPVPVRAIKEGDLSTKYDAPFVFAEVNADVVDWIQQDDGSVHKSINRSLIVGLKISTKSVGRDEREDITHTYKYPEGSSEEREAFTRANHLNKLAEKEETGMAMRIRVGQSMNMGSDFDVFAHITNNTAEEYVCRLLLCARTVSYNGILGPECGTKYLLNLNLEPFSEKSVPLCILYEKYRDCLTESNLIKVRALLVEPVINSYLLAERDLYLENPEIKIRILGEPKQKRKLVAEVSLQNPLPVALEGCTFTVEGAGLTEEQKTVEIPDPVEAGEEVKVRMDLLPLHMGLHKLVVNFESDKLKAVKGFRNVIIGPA

hTG2 [4] = target: T1, hTG2; experiment: In vitro GTP binding assay (BODIPY GTP-γ-S fluorescence); details: inhibitor 2×KI, 30 minutes at 25° C.; 3 μM BODIPY GTP-γ-S
Procedure: Previously we proposed a mechanism of action for the NC9, VA4 and AA9 inhibitors based on their ability to react covalently with the open conformation of TG2, locking the enzyme in that conformation and thereby abolishing the enzyme's ability to bind GTP and act as a G-protein. […] We used the same in vitro GTP binding assay to measure the ability of representative phenylacetyl inhibitors 67 and 72 to abolish GTP binding, as follows:
In vitro GTP binding assay. GTP binding was measured using a method similar to that reported previously (McEwen, D. P. et al., “Fluorescent BODIPY-GTP analogs: Real-time measurement of nucleotide binding to G proteins.” Anal. Biochem. 2001, 291 (1), 109-117). […] The buffer was then exchanged to 100 mM MOPS (pH=7.0), 1 mM EGTA and 5 mM MgCl2 to remove calcium via dialysis using a 10-kDa molecular weight cut off membrane. The fluorescent GTP analog was added to give a final concentration of 3.0 μM and fluorescence was measured on a microplate reader after 10 minutes of incubation (Ex/Em: 490/520 nm).

| SMILES | proliferation of GBM cell lines [1] | EC50 (SCC-13 cells) [µM] | selectivity for TG2 compared to the other major transglutaminase isozymes [2] | also measured |
| --- | --- | --- | --- | --- |
| COC(=O)[C@H](CC(C)C)NC(=O)[C@@H]1CCCN1C(=O)[C@@H](NC(=O)[C@H](CCC(=O)C=[N+]=[N-])NC(=O)OCc1ccccc1)C(C)C [Z-DON] (Cbz-[DON]VPL-OMe) | reduce proliferation in two out of three |  |  |  |
| CN(C)c1cccc2c(S(=O)(=O)NCCCCCN)cccc12 [monodansylcadaverine] | reduce proliferation in two out of three |  |  |  |
| C=CC(=O)NCCCC[C@H](NC(=O)OCc1ccccc1)C(=O)NCCOCCOCCNS(=O)(=O)c1cccc2c(N(C)C)cccc12 [NC9] |  | ~20 | good selectivity for TG2 |  |
| C=CC(=O)NCCCC[C@H](NC(=O)OCc1ccccc1)C(=O)N1CCN(S(=O)(=O)c2cccc3c(N(C)C)cccc23)CC1 [VA4] |  | 3.9 | good selectivity for TG2 | suppression of TG2 binding of GTP-γ-S-FL BODIPY (hTG2 [3]): suppress the ability of TG2 to bind GTP-γ-S-FL BODIPY |
| C=CC(=O)NCCCC[C@H](NC(=O)Cc1ccccc1)C(=O)N1CCN(C(=O)c2cccc3ccccc23)CC1 [Inhibitor 67, (S)-N-(6-(4-(1-naphthoyl)piperazin-1-yl)-6-oxo-5-(2-phenylacetamido)hexyl)acrylamide] |  |  |  | inhibition of GTP binding of hTG2 (hTG2 [4]): abolished the GTP binding ability |
